In patent publication US9320739B2 (AMBIT BIOSCIENCES CORPORATION, priority 2008, dated 2016):

Each compound was assayed on panel of 290 distinct kinases (321 in the larger panel), excluding mutant variants (assay: not given). Settings: no asterisk: panel of 290 distinct kinases.

SMILES | S35
COc1cc2ncnc(Sc3cccc(NC(=O)Nc4cc(C(C)(C)C)nn4C4CCCCC4)c3)c2cc1OC [Ex 331, 1-(3-tert-butyl-1-cyclohexyl-1H-pyrazol-5-yl)-3-(3-(6,7-dimethoxyquinazolin-4-ylthio)phenyl)urea] | B (0.10 < B ≦ 0.20)
COc1cc2ncnc(Oc3cccc(NC(=O)Nc4cc(C(C)(C)C)nn4CC(C)C)c3)c2cc1OC [Ex 332, 1-(3-tert-butyl-1-isobutyl-1H-pyrazol-5-yl)-3-(3-(6,7-dimethoxyquinazolin-4-yloxy)phenyl)urea] | C (0.20 < C ≦ 0.40)
COc1cc2ncnc(Sc3cccc(NC(=O)Nc4cc(C(C)(C)C)nn4CC(C)C)c3)c2cc1OC [Ex 333, 1-(3-tert-butyl-1-isobutyl-1H-pyrazol-5-yl)-3-(3-(6,7-dimethoxyquinazolin-4-ylthio)phenyl)urea] | C (0.20 < C ≦ 0.40)
COc1cc2ncnc(Oc3cccc(NC(=O)Nc4cc(C(C)(C)C)nn4C(C)C)c3)c2cc1OC [Ex 334, 1-(3-tert-butyl-1-isopropyl-1H-pyrazol-5-yl)-3-(3-(6,7-dimethoxyquinazolin-4-yloxy)phenyl)urea] | C (0.20 < C ≦ 0.40)
COc1cc2ncnc(Sc3cccc(NC(=O)Nc4cc(C(C)(C)C)nn4C(C)C)c3)c2cc1OC [Ex 335, 1-(3-tert-butyl-1-isopropyl-1H-pyrazol-5-yl)-3-(3-(6,7-dimethoxyquinazolin-4-ylthio)phenyl)urea] | C (0.20 < C ≦ 0.40)
COc1cc2ncnc(Oc3cccc(NC(=O)Nc4cc(C(C)(C)C)nn4-c4ccncc4)c3)c2cc1OC [Ex 336, 1-(3-tert-butyl-1-(pyridin-4-yl)-1H-pyrazol-5-yl)-3-(3-(6,7-dimethoxyquinazolin-4-yloxy)phenyl)urea] | D (D > 0.40)
COc1cc2ncnc(Sc3cccc(NC(=O)Nc4cc(C(C)(C)C)nn4-c4ccncc4)c3)c2cc1OC [Ex 337, 1-(3-tert-butyl-1-(pyridin-4-yl)-1H-pyrazol-5-yl)-3-(3-(6,7-dimethoxyquinazolin-4-ylthio)phenyl)urea] | D (D > 0.40)
COc1cc2ncnc(Oc3cccc(NC(=O)Nc4cc(C(F)(F)F)nn4-c4cccc(C)c4)c3)c2cc1OC [Ex 338, 1-(3-(6,7-dimethoxyquinazolin-4-yloxy)phenyl)-3-(1-m-tolyl-3-(trifluoromethyl)-1H-pyrazol-5-yl)urea] | C (0.20 < C ≦ 0.40)
COc1cc2ncnc(Sc3cccc(NC(=O)Nc4cc(C(F)(F)F)nn4-c4cccc(C)c4)c3)c2cc1OC [Ex 339, 1-(3-(6,7-dimethoxyquinazolin-4-ylthio)phenyl)-3-(1-m-tolyl-3-(trifluoromethyl)-1H-pyrazol-5-yl)urea] | C (0.20 < C ≦ 0.40)
COc1cc2ncnc(Oc3cccc(NC(=O)Nc4cc(C(C)(C)C)nn4-c4ccccc4Cl)c3)c2cc1OC [Ex 340, 1-(3-tert-butyl-1-(2-chlorophenyl)-1H-pyrazol-5-yl)-3-(3-(6,7-dimethoxyquinazolin-4-yloxy)phenyl)urea] | D (D > 0.40)
COc1cc2ncnc(Sc3cccc(NC(=O)Nc4cc(C(C)(C)C)nn4-c4ccccc4Cl)c3)c2cc1OC [Ex 341, 1-(3-tert-butyl-1-(2-chlorophenyl)-1H-pyrazol-5-yl)-3-(3-(6,7-dimethoxyquinazolin-4-ylthio)phenyl)urea] | C (0.20 < C ≦ 0.40)
COc1cc2ncnc(Oc3cccc(NC(=O)Nc4cc(C(C)(C)C)nn4-c4ccccc4C)c3)c2cc1OC [Ex 342, 1-(3-tert-butyl-1-o-tolyl-1H-pyrazol-5-yl)-3-(3-(6,7-dimethoxyquinazolin-4-yloxy)phenyl)urea] | D (D > 0.40)
COc1cc2ncnc(Sc3cccc(NC(=O)Nc4cc(C(C)(C)C)nn4-c4ccccc4C)c3)c2cc1OC [Ex 343, 1-(3-tert-butyl-1-o-tolyl-1H-pyrazol-5-yl)-3-(3-(6,7-dimethoxyquinazolin-4-ylthio)phenyl)urea] | C (0.20 < C ≦ 0.40)
COc1cc2ncnc(Oc3cccc(NC(=O)Nc4cc(C(C)(C)C)nn4-c4ccccn4)c3)c2cc1OC [Ex 344, 1-(3-tert-Butyl-1-(pyridin-2-yl)-1H-pyrazol-5-yl)-3-(3-(6,7-dimethoxyquinazolin-4-yloxy)phenyl)urea] | C (0.20 < C ≦ 0.40)
COc1cc2ncnc(Sc3cccc(NC(=O)Nc4cc(C(C)(C)C)nn4-c4ccccn4)c3)c2cc1OC [Ex 345, 1-(3-tert-butyl-1-(pyridin-2-yl)-1H-pyrazol-5-yl)-3-(3-(6,7-dimethoxyquinazolin-4-ylthio)phenyl)urea] | B (0.10 < B ≦ 0.20)
COc1cc2ncnc(Oc3cccc(NC(=O)Nc4cc(C5(C(F)(F)F)CC5)nn4-c4ccc(C)cc4)c3)c2cc1OC [Ex 346, 1-(3-(6,7-dimethoxyquinazolin-4-yloxy)phenyl)-3-(1-p-tolyl-3-(1-(trifluoromethyl)cyclopropyl)-1H-pyrazol-5-yl)urea] | D (D > 0.40)
COc1cc2ncnc(Sc3cccc(NC(=O)Nc4cc(C5(C(F)(F)F)CC5)nn4-c4ccc(C)cc4)c3)c2cc1OC [Ex 347, 1-(3-(6,7-dimethoxyquinazolin-4-ylthio)phenyl)-3-(1-p-tolyl-3-(1-(trifluoromethyl)cyclopropyl)-1H-pyrazol-5-yl)urea] | D (D > 0.40)
COc1ccc(-n2nc(C(C)C)cc2NC(=O)Nc2cccc(Oc3ncnc4cc(OC)c(OC)cc34)c2)cc1 [Ex 348, 1-(3-(6,7-dimethoxyquinazolin-4-yloxy)phenyl)-3-(3-isopropyl-1-(4-methoxyphenyl)-1H-pyrazol-5-yl)urea] | D (D > 0.40)
COc1ccc(-n2nc(C(C)C)cc2NC(=O)Nc2cccc(Sc3ncnc4cc(OC)c(OC)cc34)c2)cc1 [Ex 349, 1-(3-(6,7-dimethoxyquinazolin-4-ylthio)phenyl)-3-(3-isopropyl-1-(4-methoxyphenyl)-1H-pyrazol-5-yl)urea] | C (0.20 < C ≦ 0.40)
COc1cc2ncnc(Oc3cccc(NC(=O)Nc4cc(C(C)C)nn4-c4cccnc4)c3)c2cc1OC [Ex 350, 1-(3-(6,7-dimethoxyquinazolin-4-yloxy)phenyl)-3-(3-isopropyl-1-(pyridin-3-yl)-1H-pyrazol-5-yl)urea] | D (D > 0.40)
COc1cc2ncnc(Sc3cccc(NC(=O)Nc4cc(C(C)C)nn4-c4cccnc4)c3)c2cc1OC [Ex 351, 1-(3-(6,7-dimethoxyquinazolin-4-ylthio)phenyl)-3-(3-isopropyl-1-(pyridin-3-yl)-1H-pyrazol-5-yl)urea] | C (0.20 < C ≦ 0.40)
CCc1cc(NC(=O)Nc2cccc(Oc3ncnc4cc(OC)c(OC)cc34)c2)n(-c2ccccc2)n1 [Ex 352, 1-(3-(6,7-dimethoxyquinazolin-4-yloxy)phenyl)-3-(3-ethyl-1-phenyl-1H-pyrazol-5-yl)urea] | C (0.20 < C ≦ 0.40)
COc1cc2ncnc(Oc3cccc(NC(=O)Nc4cc(C5CC5)nn4-c4ccccc4)c3)c2cc1OC [Ex 353, 1-(3-cyclopropyl-1-phenyl-1H-pyrazol-5-yl)-3-(3-(6,7-dimethoxyquinazolin-4-yloxy)phenyl)urea] | C (0.20 < C ≦ 0.40)
COc1cc2ncnc(Sc3cccc(NC(=O)Nc4cc(C5CC5)nn4-c4ccccc4)c3)c2cc1OC [Ex 354, 1-(3-cyclopropyl-1-phenyl-1H-pyrazol-5-yl)-3-(3-(6,7-dimethoxyquinazolin-4-ylthio)phenyl)urea] | C (0.20 < C ≦ 0.40)
COc1cc2ncnc(Oc3cccc(NC(=O)Nc4cc(C5CCC5)nn4-c4ccccc4)c3)c2cc1OC [Ex 355, 1-(3-cyclobutyl-1-phenyl-1H-pyrazol-5-yl)-3-(3-(6,7-dimethoxyquinazolin-4-yloxy)phenyl)urea] | C (0.20 < C ≦ 0.40)

Same assay, conditions: no asterisk: panel of 290 distinct kinases; fraction of kinases inhibited 65% or greater

SMILES | S35
COc1cc2ncnc(Oc3cc(NC(=O)Nc4cc(C(C)(C)C)on4)ccc3Cl)c2cc1OC [Ex 10, 1-(5-tert-butylisoxazol-3-yl)-3-(4-chloro-3-(6,7-dimethoxyquinazolin-4-yloxy)phenyl)urea] | D (D > 0.40)
COc1cc2ncnc(Oc3cccc(NC(=O)Nc4ccc(Cl)cc4)c3)c2cc1OC [Ex 175, 1-(4-chlorophenyl)-3-(3-(6,7-dimethoxyquinazolin-4-yloxy)phenyl)urea] | C (0.20 < C ≦ 0.40)

What follows are compounds tested against T1, RAF kinases (Homo sapiens, UniProt P04049) (assay: Competition binding assay to determine binding constants (Kd) between compounds and RAF kinases). Settings: RAF1.
T1 construct: rows headed: RAF1 Kd; other: RAF1; fused on or other part: T7 phage fusion, or DNA tag for PCR detection after expression in HEK-293 cells
T1 sequence (P04049 whole entry, the tested form may be a part): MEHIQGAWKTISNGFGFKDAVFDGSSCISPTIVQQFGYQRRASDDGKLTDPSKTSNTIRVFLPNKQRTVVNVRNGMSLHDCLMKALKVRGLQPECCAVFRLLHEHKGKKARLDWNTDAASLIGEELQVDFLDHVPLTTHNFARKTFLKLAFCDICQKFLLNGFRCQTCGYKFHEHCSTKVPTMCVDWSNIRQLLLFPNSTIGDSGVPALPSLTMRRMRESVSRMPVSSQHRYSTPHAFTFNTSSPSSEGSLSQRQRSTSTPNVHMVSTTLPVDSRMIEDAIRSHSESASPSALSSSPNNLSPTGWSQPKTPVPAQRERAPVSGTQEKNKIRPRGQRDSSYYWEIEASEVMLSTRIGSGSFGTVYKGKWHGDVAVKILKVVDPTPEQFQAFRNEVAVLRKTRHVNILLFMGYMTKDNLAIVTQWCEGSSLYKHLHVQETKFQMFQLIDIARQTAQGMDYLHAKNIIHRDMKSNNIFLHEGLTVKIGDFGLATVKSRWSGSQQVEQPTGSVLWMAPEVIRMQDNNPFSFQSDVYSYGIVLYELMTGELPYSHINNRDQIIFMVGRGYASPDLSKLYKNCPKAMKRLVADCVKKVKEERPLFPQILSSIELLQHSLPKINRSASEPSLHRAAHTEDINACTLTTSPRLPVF
Experimental: (§1) Competition binding assays used herein were developed, validated and performed as described in Fabian et al., Nature Biotechnology 2005, 23, 329-336. […] The liganded beads were blocked with excess biotin and washed with blocking buffer (SeaBlock (Pierce), 1% BSA, 0.05% Tween 20, 1 mM DTT) to remove unbound ligand and to reduce non-specific binding. […] Test compounds were prepared as 100× stocks in DMSO and rapidly diluted into the aqueous environment. DMSO was added to control assays lacking a test compound. Primary screen interactions were performed in polypropylene 384-well plates in a final volume of 34 μL, while Kd determinations were performed in polystyrene 96-well plates in a final volume of 135 pt. […] The kinase concentration in the eluates was measured by quantitative PCR. Each kinase was tested individually against each compound. Kds were determined using eleven serial threefold dilutions. A selectivity score, which is a quantitative measure of selectivity of a compound against a panel of enzymes, may be calculated for a compound by dividing the number of enzymes for which a compound meets a set criteria, (for example, a binding constant of 100 nM or less), by the total number of enzymes tested. […] (Note, for those compounds tested in a larger kinase panel, as indicated by an asterisk (*) next to the S35 score, the divisor is 321 (i.e. the larger panel contains 321 distinct kinases, excluding mutant variants.)).

SMILES | Kd [nM]
COc1cc2ncnc(Oc3cc(NC(=O)Nc4cc(C(C)(C)C)on4)ccc3Cl)c2cc1OC [Ex 10, 1-(5-tert-butylisoxazol-3-yl)-3-(4-chloro-3-(6,7-dimethoxyquinazolin-4-yloxy)phenyl)urea] | 500 to 1000
COc1cc2ncnc(Oc3cccc(NC(=O)Nc4ccc(Cl)cc4)c3)c2cc1OC [Ex 175, 1-(4-chlorophenyl)-3-(3-(6,7-dimethoxyquinazolin-4-yloxy)phenyl)urea] | < 250

Each compound was assayed against T2, RAF kinases (Homo sapiens, UniProt P15056, V600E) in the same assay as above. Settings: BRAF V600E.
T2 construct: rows headed: BRAF V600E Kd; other: BRAF V600E; fused on or other part: T7 phage fusion, or DNA tag for PCR detection after expression in HEK-293 cells
T2 sequence (P15056 whole entry V600E, the tested form may be a part): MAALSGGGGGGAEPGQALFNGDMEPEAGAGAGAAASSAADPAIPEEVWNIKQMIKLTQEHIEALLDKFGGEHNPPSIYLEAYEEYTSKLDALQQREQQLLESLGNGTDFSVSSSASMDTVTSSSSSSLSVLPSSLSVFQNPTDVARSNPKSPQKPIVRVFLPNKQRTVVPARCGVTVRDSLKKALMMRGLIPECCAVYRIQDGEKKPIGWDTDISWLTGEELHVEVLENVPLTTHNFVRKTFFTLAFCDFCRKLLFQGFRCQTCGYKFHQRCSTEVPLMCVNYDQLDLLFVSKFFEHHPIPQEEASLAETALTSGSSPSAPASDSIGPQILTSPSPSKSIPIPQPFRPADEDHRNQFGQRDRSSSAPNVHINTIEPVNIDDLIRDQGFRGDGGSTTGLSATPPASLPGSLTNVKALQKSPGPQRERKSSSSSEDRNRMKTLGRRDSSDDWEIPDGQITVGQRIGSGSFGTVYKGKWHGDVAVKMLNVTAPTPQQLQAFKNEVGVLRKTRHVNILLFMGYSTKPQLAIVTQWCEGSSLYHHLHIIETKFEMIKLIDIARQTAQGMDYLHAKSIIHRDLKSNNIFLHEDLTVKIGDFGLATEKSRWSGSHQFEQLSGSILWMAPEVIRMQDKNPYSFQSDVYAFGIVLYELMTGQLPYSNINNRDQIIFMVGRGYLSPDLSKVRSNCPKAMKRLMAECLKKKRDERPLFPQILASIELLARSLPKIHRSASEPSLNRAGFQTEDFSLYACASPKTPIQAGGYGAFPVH
Experimental: as §1

SMILES | Kd [nM]
COc1cc2ncnc(Oc3cccc(NC(=O)Nc4cc(C(F)(F)F)n(-c5ccccc5)n4)c3)c2cc1OC [Ex 169, 1-[3-(6,7-dimethoxyquinazolin-4-yloxy)phenyl]-3-[1-phenyl-5-(trifluoromethyl)-1H-pyrazol-3-yl]urea] | 250 to 500
COc1cc2ncnc(Oc3cccc(NC(=O)Nc4ccc(Cl)cc4)c3)c2cc1OC [Ex 175, 1-(4-chlorophenyl)-3-(3-(6,7-dimethoxyquinazolin-4-yloxy)phenyl)urea] | < 250

The compounds below were run against T3, RAF kinases (Homo sapiens, UniProt P15056) in the same assay as above. Settings: BRAF WT.
T3 construct: rows headed: BRAF WT Kd; other: BRAF WT; fused on or other part: T7 phage fusion, or DNA tag for PCR detection after expression in HEK-293 cells
T3 sequence (P15056 whole entry, the tested form may be a part): as the sequence (P15056 whole entry V600E, the tested form may be a part) above, with E600V counted along it
Experimental: as §1

SMILES | Kd [nM]
COc1cc2ncnc(Oc3cccc(NC(=O)Nc4ccc(Cl)cc4)c3)c2cc1OC [Ex 175, 1-(4-chlorophenyl)-3-(3-(6,7-dimethoxyquinazolin-4-yloxy)phenyl)urea] | < 250
